Common to all, as to type: cell-based, Staphylococcus aureus
The subject of one assay is MRSA USF656. Nature of the assay: Kirby-Bauer agar disk diffusion. The settings on record: 20 μg disk loading; for The Zone of Inhibition: Table 6. How it is done: (§1) In this study, a selection of N-methylthio-substituted β-lactams are examined for antimicrobial activity by the Kirby-Bauer disk diffusion method on agar plates. A variety of common Gram-positive and Gram-negative bacteria are tested, including clinical isolates of methicillin-resistant Staphylococcus aureus (MRSA).
(§2) Compound susceptibility measurements are obtained from agar disk diffusion experiments using 6-mm air-dried disks impregnated with 20 μg of the test compound. The values correspond to the average diameters in mm (triplicate experiments) for the zone of growth inhibition observed after 24 h. Staphylococcus aureus (ATCC 25923) and β-lactamase-producing strains of methicillin-resistant Staphylococcus aureus (labeled as MRSA USF652-659) are obtained from Lakeland Regional Medical Center, Lakeland, Fla. Staphylococcus epidermidis, Staphylococcus simulans, Staphylococcus simulans, and Microcossus luteus are clinical isolates from University of South Florida Medical Clinic. Nieserria gonnorhoeae (β-lactamase positive) is obtained from the Tampa Branch State Laboratory. PenG is penicillin G (potassium salt). Table 1 provides the zones of growth inhibition that are observed after 24 hours using the lactams of FIGS. 1A-1I (designated A-I, respectively).
(§3) Of particular interest is the ability of these compounds to retain their effectiveness against penicillin-resistant strains of Staphylococcus aureus, a dangerous hospital-borne pathogen which is becoming difficult to treat with conventional antibiotic therapy. The lactams were screened for antibacterial activity by disk diffusion on agar plates, and the resulting zones of bacterial growth inhibition measured (see Table 3; each lactam is designated by Figure number).
(§4) Table 3: Growth inhibition zones obtained from agar disk diffusion experiments using 6-mm air-dried disks impregnated with 20 μg of the test compound. The values correspond to the average diameters in mm for the zone of growth inhibition observed after 24 hours. Staphylococcus aureus and β-lactamase-producing strains of methicillin-resistant Staphylococcus aureus (labeled MRSA USF652-659) are obtained from a clinical testing laboratory at Lakeland Regional Medical Center, Lakeland, Fla.
(§5) Those compounds were tested for bioactivity using the Kirby-Bauer test on agar plates.
(§6) Biological activity is enhanced against β-lactamase producing strains of methicillin-resistant Staphylococcus aureus (MRSA). With the lactam shown in FIG. 11A serving as a lead structure, a series of other C-4 substituted derivatives (FIGS. 11B-11I) were investigated herein. Table 5 lists microbiological data for β-lactams from Kirby-Bauer Disc Diffusion Test Results (with each lactam identified by Figure number).
(§7) Scheme I summarizes the synthesis of ester compounds 4. 4-Carboxy benzaldehyde (1) is coupled with the appropriate alcohol using DCC/DMAP, followed by reaction with p-anisidine, to give imines 2. Staudinger coupling of methoxyacetyl chloride with imine 2 gives N-aryl protected β-lactam 3. N-Dearylation of β-lactam 3 with ceric ammonium nitrate and methylthiolation with N-(methylthio)phthalimide affords N-methylthio β-lactams 4. These compounds are tested for antibacterial activity by the Kirby-Bauer method of disc diffusion on agar plates. [drawing 7]
(Agar diffusion results depend on both activity and mobility in agar.)

The subject of another assay is MRSA USF658. The assay is described as follows: Kirby-Bauer agar disk diffusion. The note with it: 20 μg disk loading; for The Zone of Inhibition: Table 6. On the procedure:
as §1, §2, §3, §4, §5, §6, §7

Another assay has as its system MRSA USF659. Nature of the assay: Kirby-Bauer agar disk diffusion. The settings on record: 20 μg disk loading; for The Zone of Inhibition: Table 6. On the procedure: as §1, §2, §3, §4, §5, §6, §7
A further assay has as its system MRSA USF657. Nature of the assay: Kirby-Bauer agar disk diffusion. The note with it: 20 μg disk loading; for The Zone of Inhibition: Table 6. On the procedure: as §1, §2, §3, §4, §5, §6, §7
In the next assay the test system is MRSA USF653. The assay is described as follows: Kirby-Bauer agar disk diffusion. The settings on record: 20 μg disk loading; for The Zone of Inhibition: Table 6. How it is done:
as §1, §2, §3, §4, §5, §6, §7

Another assay relates to MRSA USF655. The assay is described as follows: Kirby-Bauer agar disk diffusion. The settings on record: 20 μg disk loading; for The Zone of Inhibition: Table 6. How it is done: as §1, §2, §3, §4, §5, §6, §7
A further assay has as its system MRSA USF654. The assay is described as follows: Kirby-Bauer agar disk diffusion. The settings on record: 20 μg disk loading; for The Zone of Inhibition: Table 6. On the procedure:
as §1, §2, §3, §4, §5, §6, §7

For a further assay, the system named is MRSA USF652. The assay is described as follows: Kirby-Bauer agar disk diffusion. The settings on record: 20 μg disk loading; for The Zone of Inhibition: Table 6. On the procedure: as §1, §2, §3, §4, §5, §6, §7
Assay [1] relates to Staphylococcus strains including MRSA. The assay is described as follows: antibacterial activity screening, results stated in words.
Source text: However, the N-alkylthio substituent is required, since reduction to the N—H analogue completely destroys the biological activity. […]
as §3
With the lactam of FIG. 6A serving as a lead structure, other C4-unsaturated derivatives (FIGS. 6B-6E) and C4-saturated analogues (FIGS. 6F-6H), were examined all of which also have activity against Staphylococcus strains including MRSA.
as §7

A further assay deals with Staph aureus 525. The assay is described as follows: Kirby-Bauer agar disk diffusion. The settings on record: Table 4; 20 μg disk loading.
Setting [2] is: Example 6, MRSA strains of Table 6.

Here are results for nine compounds from US6946458B2, “N-thiolated beta-lactams: novel antibacterial agents for methicillin-resistant Staphylococcus aureus” (University of South Florida, priority 1999, dated 2005).

Consider `COC(=O)c1ccc(C2C(OC)C(=O)N2SC)cc1` (racemic) [4a], for which the “The Zone of Inhibition” value in the assay with MRSA USF656 is listed as 11 mm; with MRSA USF658, 9 mm; in the assay with MRSA USF659, 13 mm; in the assay on MRSA USF657 it was 12 mm; in the assay with MRSA USF653, 14 mm; with MRSA USF655 it was 14 mm. Also, the “The Zone of Inhibition” value in the assay with MRSA USF654 was determined as 8 mm; with MRSA USF652, 12 mm. Besides, the “antibacterial activity, in words” value in assay [1] (setting [2]) is “about similar activity”.

Regarding `CCCCCOC(=O)c1ccc(C2C(OC)C(=O)N2SC)cc1` (racemic) [4c], the “The Zone of Inhibition” value was determined as 14 mm in the assay on MRSA USF656; 12 mm in the assay with MRSA USF658; 12 mm in the assay on MRSA USF659; 14 mm in the assay on MRSA USF657; 13 mm in the assay on MRSA USF653; 13 mm with MRSA USF655. In addition, the “The Zone of Inhibition” value is 11 mm in the assay on MRSA USF654 and 17 mm in the assay with MRSA USF652. In addition, in assay [1] (setting [2]), the “antibacterial activity, in words” value is recorded as “about similar activity”.

In the case of `COC1C(=O)N(SC)C1c1ccccc1Cl` (racemic) [FIG. 7A], the “antibacterial activity, in words” value in assay [1] (Example 3 SAR) is “most active analogue”.

As for `CCCCCCCCCCOC(=O)c1ccc(C2C(OC)C(=O)N2SC)cc1` (racemic) [4e], the “The Zone of Inhibition” value in the assay with MRSA USF656, in the assay on MRSA USF658, with MRSA USF659, in the assay with MRSA USF657, in the assay with MRSA USF653 and in the assay on MRSA USF655 was 0 mm each time. Further, the “The Zone of Inhibition” value in the assay on MRSA USF654 and in the assay on MRSA USF652 was 0 mm in each case. In addition, the “antibacterial activity, in words” value in [1] (setting [2]) is given as “no activity”.

Take `CCCCCCCOC(=O)c1ccc(C2C(OC)C(=O)N2SC)cc1` (racemic) [FIG. 8D]: the “antibacterial activity, in words” value in [1] (Example 3 SAR) is on record as “about half the activity of the pentyl analogues”.

Consider `COC1C(=O)N(SC)C1C#Cc1ccccc1` (racemic) [FIG. 6A], for which the “antibacterial activity, in words” value in assay [1] (Example 3 SAR) is reported as “inhibits the in vitro growth”.

With `CCCCSN1C(=O)C(OC)C1c1ccccc1Cl` (racemic) [Butylthio], the “Zones of Inhibition” value with MRSA USF656 (Table 4) was 25 mm; in the assay on MRSA USF658 (Table 4), 20 mm; with MRSA USF659 (Table 4), 24 mm; with MRSA USF657 (Table 4), 26 mm; with MRSA USF653 (Table 4), 27 mm; in the assay on MRSA USF655 (Table 4), 23 mm. The figures for the “Zones of Inhibition” value in the assay on MRSA USF654 (Table 4), with MRSA USF652 (Table 4) and with Staph aureus 525 were 23 mm, 26 mm and 25 mm, respectively.

Consider `CCCCCCCCCCOC(=O)c1ccc(C2C(OC)C(=O)N2SC)cc1` (racemic) [FIG. 8E], for which the “antibacterial activity, in words” value in assay [1] (Example 3 SAR) is “totally devoid of activity”.

Turning to `CCOC(=O)c1ccc(C2C(OC)C(=O)N2SC)cc1` (racemic) [4b], the “The Zone of Inhibition” value in the assay on MRSA USF656 was 11 mm; in the assay with MRSA USF658, 11 mm; with MRSA USF659, 13 mm; in the assay with MRSA USF657 it was 14 mm; with MRSA USF653 it was 14 mm; in the assay with MRSA USF655 it was 12 mm. Further, the “The Zone of Inhibition” value in the assay with MRSA USF654 was found to be 9 mm; in the assay with MRSA USF652, 17 mm. Besides, the “antibacterial activity, in words” value in assay [1] (setting [2]) was “about similar activity”.
